# Test system: M. tuberculosis H37Rv growth inhibition
# Assay: Mycobacterium tuberculosis H37Rv growth inhibition, putative kinase inhibitor library, confirmatory dose response (AID 2842);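 also: bacteria incubated one week before Alamar blue readout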
row,SMILES,IC90 [µg/mL]
1,CCOC(=O)CNC(=O)CSc1ncnc2c1nnn2Cc1ccccc1F,3.38
2,CCOC(=O)C(C)Sc1ncnc2c1nnn2Cc1ccc(F)cc1 (stereo unspecified),0.51
3,Cc1ccc(-c2nnc(NC(=O)Cc3ccccc3)o2)c(C)c1,14.8
4,O=C(NCCCSc1nc2ccccc2o1)Nc1ncccn1,25.1
5,COc1ccc(C(=O)Nc2nnc(-c3cc(C)ccc3C)o2)c(OC)c1,13.4
6,COc1ccc2nc(N3CCCC3)sc2c1,8.36
7,Fc1cc(F)c2nc(N3CCCC3)sc2c1,18.2
8,CCOc1cc(-c2nnc(NC(=O)C3=COCCO3)o2)cc(OCC)c1OCC,7
9,O=C(Nc1nnc(-c2cc(Cl)ccc2Cl)o1)c1ccccc1F,0.43
10,COc1ccccc1-c1nnc(Nc2nc3ccc(SC)cc3s2)o1,15.9
11,CCOc1ccc2nc(Nc3nc4c(OC)cccc4s3)sc2c1,3.75
12,COc1ccccc1-c1nnc(NC(=O)c2ccc(-c3ccccc3)cc2)o1,1.48
13,Cc1ccc(/C(O)=C2\C(=O)C(=O)N(c3ccccn3)C2c2cccc(Br)c2)cc1 (stereo unspecified),21.4
14,O=C(Nc1nc2c(s1)CCCC2)c1ccc(Cc2ccccc2)cc1,7.01
15,Cc1ccc2nc(N(CCCn3ccnc3)C(=O)c3cccs3)sc2c1,1.73
16,O=[N+]([O-])c1cccc(-c2ccc(/C=N/O)o2)c1,11.9
17,COC(=O)c1ccc(NC(=O)CSc2nc(-c3ccccc3C)ns2)cc1,0.79
18,Cc1ccc(-c2nnc(SCC(=O)Nc3cc(C)on3)o2)cc1,3.95
19,COC(=O)c1ccc(C(=O)NNc2nc3ccc(Cl)cc3s2)cc1,28.9
20,c1ccc(CN2CCN(c3nc(Nc4ccccc4)c4nccnc4n3)CC2)cc1,5.37
21,COc1ccc(-c2nc(N3CCC(C)CC3)nc3n[nH]c(N)c23)cc1,2.14
22,Cc1cc(Nc2ccc(C)c(Cl)c2)n2ncc(-c3ccccc3)c2n1,3.35
23,Cc1ccc(C)c(-c2nnc(NC(=O)c3ccc([N+](=O)[O-])cc3)o2)c1,78.5
24,Cc1ccc(Cn2cc3c(-c4ccc(C)c(C)c4)nnc-3c3cc4c(cc32)OCCO4)cc1,11.5

row,SMILES,IC90 [µg/mL]
1,COC(=O)C(C)Oc1ccc2cc(-c3ccc(OC)c(OC)c3)c(=O)oc2c1 (stereo unspecified),6.7
2,O=C(Nc1nnc(-c2ccc(F)cc2)o1)c1ccc(Br)s1,< 0.2
3,COc1cccc2sc(Nc3nc4c(s3)C(=O)CC(C)(C)C4)nc12,7.52
4,O=C(Nc1nnc(-c2ccc(Cl)s2)o1)c1nc2ccccc2s1,4.81
5,CCOc1ccc2nc(Nc3nc4ccc(NC(C)=O)cc4s3)sc2c1,7.84
6,Cc1ccc(C)c(-c2nnc(NC(=O)c3ccccc3C)o2)c1,2.48
7,Cc1ccc(C)c(C(=O)Nc2nnc(-c3cc(C)ccc3C)o2)c1,2.56
8,Cc1ccc(C2C=C(c3ccc(Cl)cc3)Nc3ncnn32)cc1 (stereo unspecified),6.94
9,Cc1ccccc1C(=O)Nc1nnc(-c2cc(Cl)ccc2Cl)o1,1.27
10,COc1cc2ccccc2cc1C(=O)Nc1nccs1,30.2
11,O=C1C(Cl)=C(Nc2ccccc2O)C(=O)N1c1ccc(Cl)c(Cl)c1,0.84
12,O=C(Nc1nnc(-c2cc(Cl)ccc2Cl)o1)c1ccc2c(c1)CCCC2,25.8
13,COc1cccc2sc(Nc3nc4c(s3)CC(C)CC4)nc12 (stereo unspecified),5.79
14,O=C1C(Cl)=C(Nc2ccccc2O)C(=O)N1c1ccccc1,3.29
15,O=C(Nc1nnc(-c2ccco2)o1)c1cc(Cl)ccc1Cl,4.99
16,COc1ccc(NC(=O)c2cccc3nc4ccccc4nc23)c(OC)c1,4.07
17,Cc1ccc(-c2nnc(NC(=O)COc3ccccc3)o2)c(C)c1,5.5
18,CN(C)c1ccc(Nc2nncc(=O)[nH]2)cc1,8.05
19,COc1ccc(C)c2sc(NNC(=O)c3nc4ccccc4s3)nc12,38
20,CCOC(=O)c1ccc2nc(NC(=O)C(C)C)sc2c1,19.5
21,Cc1ccc2[nH]c(=O)c(C3=NN(C(=O)c4ccco4)C(c4ccco4)C3)c(-c3ccccc3)c2c1 (stereo unspecified),15.4
22,COc1ccc2c(c1)c1nnc(-c3ccc(C)cc3)c-1cn2Cc1ccccc1OC,4.23
23,O=C(Nc1nnc(-c2cc(Cl)ccc2Cl)o1)c1ccc(Br)s1,2.65
24,CCC(=O)Nc1nnc(-c2ccc(Br)cc2)o1,6.26

row,SMILES,IC90 [µg/mL]
1,Cc1ccc(C)c(-c2nnc(NC(=O)c3ccc(Cl)cc3)o2)c1,22.7
2,O=C(Nc1nnc(-c2cc(Cl)ccc2Cl)o1)c1ccc(S(=O)(=O)N2CCCC2)cc1,25.6
3,Cc1cc(C)cc(Nc2cc(C)nc3c(-c4ccccc4)cnn23)c1,2.7
4,CCOC(CNc1ncnc2c1cnn2-c1ccc(C)cc1)OCC,25.6
5,Cc1ccc2c(c1)NC(=O)c1cc(NS(=O)(=O)c3ccc4c(c3)OCCO4)ccc1O2,17.5
6,COc1ccc(Cl)cc1NC(=O)NC1CC(=O)N(c2ccc(C)c(C)c2)C1 (stereo unspecified),28.5
7,CCOC(=O)COc1ccc(/C=C2\Oc3cc(OC)ccc3C2=O)cc1,3.32
8,Cc1ccc(C)c(-c2nnc(NC(=O)COc3ccccc3)o2)c1,2.24
9,CN(C)S(=O)(=O)c1ccc(C(=O)Nc2nnc(-c3cc(Cl)ccc3Cl)o2)cc1,3.89
10,Cc1ccc2c(c1)=C(c1sc(=O)[nH]c1O)C(=O)N=2,22.8
11,Cc1ccccc1C(=O)N=Nc1c(O)[nH]c2ccc(Br)cc12,30.8
12,Cc1ccc(-c2nnc3c4cc5c(cc4n(Cc4ccccc4F)cc2-3)OCCO5)cc1C,6.25
13,O=S(=O)(Nc1cc(Cl)c(O)c2ccccc12)c1ccc(F)cc1,6.28
14,Cc1ccc(-c2nnc(NC(=O)CCOc3ccccc3)o2)c(C)c1,1.8
15,CC1CCCCN1S(=O)(=O)c1ccc(C(=O)Nc2nnc(-c3ccc(Br)cc3)o2)cc1 (stereo unspecified),17.3
16,Cc1c(CCC#N)c(=O)n2c([nH]c3ccccc32)c1C#N,2.29
17,O=C(Nc1nnc(C2=COCCO2)o1)c1ccc(-c2ccccc2)cc1,8.24
18,Cc1ccc(C)c(-c2nnc(NC(=O)c3cccc4ccccc34)o2)c1,0.41
19,O=C(Nc1nnc(-c2ccc3c(c2)OCCO3)o1)C1CC1,33.9
20,O=C(NCC(c1cccs1)N1CCc2ccccc2C1)c1ccc2c(c1)OCO2 (stereo unspecified),23.9
21,O=C(c1cccs1)N(CCCn1ccnc1)c1nc2c(F)cc(F)cc2s1,2.38
22,COC(=O)c1c(NC(=O)c2ccc3c(c2)CCCC3)sc2c1CCN(C(C)=O)C2,6.21
23,Cc1ccc(-c2nnc(NC(=O)C3=COCCO3)o2)c(C)c1,7.35
24,O=C(Nc1nnc(-c2ccco2)o1)c1cccs1,3.12

row,SMILES,IC90 [µg/mL]
1,Cc1ccc2sc(N(CCCn3ccnc3)C(=O)COc3ccccc3)nc2c1C,5.39
2,COc1ccc(Cl)c2sc(N(CCCn3ccnc3)C(=O)c3cccs3)nc12,1.72
3,C=CCN(CC=C)S(=O)(=O)c1ccc(C(=O)Nc2nnc(-c3cc(Cl)ccc3Cl)o2)cc1,12.8
4,COc1ccc(-n2nnc3c(SCC(N)=O)ncnc32)cc1,5.67
5,O=C(COc1ccc2c3c(c(=O)oc2c1)CCCC3)OC1CCCCC1,9.71
6,O=c1c2[nH]c3ccccc3c2nc(SCCN2CCCCC2)n1-c1ccccc1F,14.6
7,COc1ccccc1-c1nnc(NC(=O)c2sc3ccccc3c2Cl)o1,5.3
8,CCN1CCc2c(sc(NC(=O)c3sc4ccccc4c3Cl)c2C(N)=O)C1,10.6
9,COc1cccc(Cn2cc3c(-c4ccc(Cl)cc4)nnc-3c3cc(OC)c(OC)cc32)c1,15.2
10,COc1cccc(C(=O)N(CCCn2ccnc2)c2nc3ccc(F)cc3s2)c1OC,6.75
11,Cc1ccc2sc(NNC(=O)C3COc4ccccc4O3)nc2c1C (stereo unspecified),0.88
12,O=C(Nc1nnc(-c2ccc3c(c2)CCCC3)o1)c1ccc(F)cc1,21.6
13,CC(C)c1ccc(OCC(=O)Nc2nccs2)cc1,6.88
14,Cc1ccc(Nc2nc(N3CCN(c4ccc(F)cc4)CC3)nc3nccnc23)cc1C,22.8
15,Cc1ccccc1C(=O)Nc1nnc(-c2ccncc2)o1,13.5
16,Cc1cc(NC2CCCC2)n2ncc(-c3ccccc3)c2n1,9.88
17,O=C(CCOc1ccccc1)Nc1nnc(-c2ccc3c(c2)OCCO3)o1,95.9
18,COc1ccc(-c2nnc(NC(=O)C3CC3)o2)cc1,1.06
19,CCOc1cc(-c2nnc(NC(=O)C(C)C)o2)cc(OCC)c1OCC,9.11
20,COc1ccc(OCC(=O)Nc2ccc(I)cc2C)cc1,3.2
21,O=C(Nc1nc2c(s1)CCc1ccccc1-2)c1cccc(Cl)c1,12.4
22,Cc1cc(C)c2sc(NNC(=O)c3ccc(S(=O)(=O)N4CCCCC4)cc3)nc2c1,29.4
23,CCCCOc1ccc(C(=O)N2CC(=O)Nc3ccc(Cl)cc3C2c2ccc(F)cc2)cc1 (stereo unspecified),13.1
24,Cc1cccc2sc(NNC(=O)c3nc4ccccc4s3)nc12,3.36

row,SMILES,IC90 [µg/mL]
1,Cc1ccc(C)c(C(=O)Nc2nnc(-c3ccc(C)c(C)c3)o2)c1,2.66
2,COc1ccccc1-c1nnc(Nc2nc3c(F)cccc3s2)o1,3.16
3,COc1ccccc1Cn1cc2c(-c3ccc(F)cc3)nnc-2c2cc(OC)c(OC)cc21,22
4,CC(C)Cn1c(N2CCN(Cc3ccc(Cl)c(Cl)c3)CC2)nc2c1c(=O)[nH]c(=O)n2C,1.43
5,CCCOc1ccc(S(=O)(=O)Nc2ccc3c(c2)CCC(=O)N3CC)cc1,13
6,CCOC(=O)N1CCN(c2ncnc3c2cnn3-c2ccc(C)c(C)c2)CC1,9.11
7,COc1ccc(C(=O)Nc2nc3c(s2)CCCC3)cc1OC,22.8
8,CS(=O)(=O)Nc1cccc(C2=NN(c3nc(-c4ccccc4)c4cc(Cl)ccc4n3)C(c3ccccc3F)C2)c1 (stereo unspecified),6.67
9,CCOC(CNc1ncnc2c1cnn2-c1ccc(C)c(C)c1)OCC,21.8
10,CN1C(=O)c2cccc(NC(=O)c3ccc([N+](=O)[O-])s3)c2C1=O,25.1
11,CN1CCc2c(sc(NC(=O)c3ccc([N+](=O)[O-])o3)c2C(N)=O)C1,10.5
12,O=C(Nc1nnc(-c2ccco2)o1)c1cccc(Oc2ccccc2)c1,3.31
13,Fc1ccc(N2CCN(c3nc(Nc4ccccc4)c4nccnc4n3)CC2)cc1,1.69
14,O=C(CN1C(=O)CCC1=O)Nc1nnc(-c2ccc3c(c2)CCCC3)o1,27.6
15,Cc1ccc(C)c(-c2nnc(NC(=O)c3c(F)cccc3F)o2)c1,5.74
16,Cc1ccc(-c2nnc(NC(=O)C3CCCCC3)o2)c(C)c1,8.75
17,O=C(Nc1nnc(-c2ccc3c(c2)CCCC3)o1)C1=COCCO1,9.82
18,COc1ccc(-c2nnc(NC(=O)c3ccccc3Br)o2)cc1,82.2
19,Cc1cccc(N2CCN(C(=O)CCCCCn3c(=O)[nH]c4ccsc4c3=O)CC2C)c1 (stereo unspecified),19.5
20,CC(=O)OCn1nnc2ccccc2c1=O,3.33
